In patent EP0374267A1, “DERIVATIVES OF PLATINUM (P) WITH A POLYANION OF DEOXYRIBONUCLEIC ACID, METHOD FOR OBTAINING THEM AND PHARMACEUTICAL ANTITUMOR PREPARATION BASED ON THEM” (priority 1988, dated 1989):

What was measured:
[1] = tested on: Shvetz-Erythromyelose; assay: Antineoplastic activity against transplanted Shvetz erythromyelosis in rats; type: in vivo, weissen rassenlosen Ratten; settings: for Grad der Hemmung des Wachstums eines Tumors: i.p. 3x at 24 h intervals from day 4-6 after inoculation, dose I 17.1, II 17,1-27,3, III 27,3, CDDP 8,1, DNS 18,0 mg/kg
Excerpt: Die erfindungsgemässen Verbindung weisen antineonlastische Aktivität in Verbindung mit einer immunomudulierenden Wirkung auf. Die beanspruchten Verbindungen und das erfindungsgemässe Arzneipräparat mit antineoplastischer Wirkung wurden in Versuchen an Tieren und in Kliniken an Menschen untersucht. Untersucht wurde ihre antineoplastische Aktivität gegenüber der überimnften Shvetz-Erythromyelose Die antineoplastische Aktivität jedes der angemeldeten Stoffe bewertete man nach den Ergebnissen der Versuche, die an weissen rassenlosen Ratten mit einem Gewicht von 150 bis 200 g (in Gruppen zu je 10 Tieren) angestellt wurden. Den Tieren wurden 2.10^8 - 2.10^10 Zellen des überimpften Stammes der Shvetz-Erythromyelose subkutan in die Hüfte inokuliert. Am 4. bis 6. Tag nach der Inokulation der Tumorzellen, das heisst in der Periode der logarythmischen Phase des Wachstums eines Tumors, begann man, den Tieren die erfindungsgemässen Verbindungen einzuführen. Die angemeldeten Verbindungen wurden intraperitoneal dreimal mit einem Zeitabstand von 24 stunden in Form von wässerigen Lösungen beziehungsweise wässerigen Suspensionen eingeführt.
Antineoplastische Wirkung der erfindung sgemässen Verbindungen wurde im Vergleich zur Kontrolle (ohne Anwendung der Präparate) und im Vergleich zu den CDDP- und DNS-Präparaten untersucht.
Die antineoplastische Aktivität bewertete man nach folgenden biologischen Kenndaten: Grad der Hemmung des Wachstums eines Tumors, der Uberlebenskraft von Tieren am 10. Tag nach der Inokulation vom Tumorzellen sowie der Lebensdauer von Tieren.

[2] = tested on: humorale Immunität; assay: Humoral immunity in tumour-bearing rats immunised with sheep erythrocytes; type: in vivo, Ratten der Wistar-Linie; settings: treated tumour bearers, 4 days after immunisation
Excerpt: Der Einfluss auf die homorale Immunität (Antiteloge- nese)- bewertete man nach der Menge von antikörperbildenden Zellen in der Milz und nach dem Titer von Agglutininen und Hämolysinen im Blütserum.
Der Einfluss der beansprucheen Stoffe auf die humorale Immunität wurde auch im Vergleich zum CDDP und zur DNS untersucht. Dafür wurden Ratten,Tumorträger der Shvetz-Erythromyelose der Wistar-Linie eingesetzt, denen man ein Tumor subkutan in die Hüfte überimpfte. Am 4. Tag nach der Uberimpfung des Tumors begann man ihre Behandlung nach dem gleichen Schema wie auch bei der Untersuchung der zellulären Immunität. Am 8. Tag nach der Uberimpfung des Tumors führte man die Immunisierung der Tiere durch, indem man ihnen intraperitoneal Hammelerythrozyte in einer Dosis von 2.10^6 Zellen einführt. In 4. Tagen nach der Immunisierung tötete man die Tiere mittels Dekapitation unter Anwendung von Athernarkose und man ermittelte den Gehalt an antikörperbildenden Zellen in der Milz nach der Erne-Methode und die Agglutinine- und Hämolysine-Titer im periphärischen Blut mit bekanntnn Methoden.
Der Gehalt an antikörperbildenden Zellen ermittelte man, berechnet auf I0^6 Splenozyte und auf die Gesamtmasse der Milz. Dee Versuchergebnisse sind in der Tabelle 4 angeführt.

[3] = Antibody (agglutinin) titre in serum of intact mice immunised with sheep erythrocytes; type: in vivo, Mäuse-Linien CBA und C57Bl6
Excerpt: Der Einfluss der beanspruchten Stoffe auf die Antitelogenese wurde auch an zwei gegensätzlich auf Hammelerythrozyte reagierenden Mäuse-Linien: CBA und C57Bl6 untersucht. Man verwendete Tiere mit einem Gewicht von 20+2 g, die einer Quarantäne innerhalb von mindestens 20 Tagen ausgesetzt wurden. […] In einer Stunde wurden die Tiere immunisiert, indem man ihnen intraperitoneal I0^8 Zellen der Hammelerythrozyte einführt..Am 7., 14. und 30. Tag tötete man die Tiere und ermittelte man den Gehalt an Agglutininen im Blutserum in an sich bekannter Weise. Die Ergebnisse wurden in Form lg2 der Antikörper-Titer ausgedrückt. Die Ergebnisse sind in der Tabelle 5 angeführt.

[4] = tested on: antikörperbildenden Zellen in der Milz; assay: Antibody-forming cells in the spleen of mice immunised with sheep erythrocytes; type: in vivo, Mäusen der CBA-Linien und C57Bl6-Linie; settings: CBA and C57Bl6 mice, day 4; CDDP 8,1, DNS 6,0, compounds 13,6 mg/kg i.p.; numeric Table 6 is an image
Experimental: Es wurden Untersuchungen des Einflusses der bean - spruchten Stoffe im Vergleich zu den CDDP- und DNS-Präparaten auf die Bildung von antikörperbildenden Zellen in der Milz von zwei gegensätzlich auf die Hammelerythrozyte reagierenden Mäuse-Linien durchgeführt.
In I Stunde wurden die Tiere immunisiert, indem man ihnen intraperitoneal […] Zellen der Hammelerythrozyte einführte . Am 4. Tag ermittelte man die Anzahl der antikörperbildenden Zellen in der Milz der Tiere der Versuchs-und der Kontrollgruppe (ohne Einführung des Präparats). Der Gehalt an antikörperbildenden Zellen berechnete man auf […] Splenozyte und auf die ganze Milz. Die Ergebnisse der Untersuchungen sind in der Tagelle 6 dargestellt.

[5] = CDDP in combination with Vinblastin, Bleomycin, Aktinomycin und Prednisolon; cited from earlier work
[6] = Acute toxicity, intraperitoneal, rats and mice (with histology of kidney and gut); type: in vivo, weissen rassenlosen Ratten; weissen nichtlinearen Mäusen; settings: i.p. 3x at 2 h intervals, total dose
Excerpt: Die Anzahl der krepierten Tiere in jeder Gruppe wurde alle 21 bis 48 Stunden registriert. In jeder Gruppe waren je 12 Tiere (6 Männchen und 6 Weibchen), die Versuche wurden zweimal wiederholt. Die Ergebnisse der Versuche sind in der Tabelle 2 angeführt.
Die krepierten Tiere wurden obduziert und man führte hystologische Untersuchungen der Nieren und des Darmes durch. Die Tiere, die die beanspruchten Stoffe in einer unter der toxischen Dosis liegenden Menge verabreicht bekamen, wurden in I4 Tagen getötet. Die inneren Organe derselben wurden der Autopsie ausgesetzt.

[7] = tested on: zelluläre Immunität; assay: Cellular immunity: rejection time of a skin allograft in tumour-bearing rats; type: in vivo, Männchenratten der Wistar-Linie; settings: treated tumour bearers; i.p. 3x at 24 h; I 17,1, II 17,1, III 27,3, DNS 12,0, CDDP 8,1 mg/kg
Excerpt: Der Einfluss auf die zelluläre Immunität bewertete man nach der Zeit der Abstossung eines Allotransplantats der Haut eines Tumorträgers.
Der Einfluss der beanspruchten Stoffe auf die zelluläre Immunität wurde an Männchenratten der Wistar-Linie mit einem Gewicht von 150 bis 200 g untersucht. Den Tieren wurde ein Hautlappen mit Abmessungen 2 x 3 cm^2 von den Ratten der August-Linie in die Rückengegend transplantiert. Dann wurden denselben Tieren subkutan 2.10^8 Zellen der Shvetz-Erythromyelose in die Hüfte inokuliert. Am 4. bis 6. […] Zum Vergleich verwendete man die DNS- und CDDP-Präparate, die amn in einer Salz-lösung nach dem gleichen'Schema in Dosen von 12,0 und 8,1 mg/kg einführte. Als Kontrolle dienten intakte Tiere. Die Zeit der Abstossung des Hautlappens fixierte man nach der Änderung seiner Temperatur, Farbe und Elastizität.

[8] = Solubility; type: physicochemical; settings: 20°C
[9] = pH of a solution in citrate-salt solution (potentiometric); type: physicochemical; settings: 0,015 g (II: 0,018 g) in 1000 ml Zitrat-Salz-Lösung, 20°C
Experimental: Die erfindung sgemässe Verbindung, Poly{hexakis-[Chloroammindiaquaplatin (II)]} - µ - desoxyribonukleat fol- ^gender Formel: [drawing 3] worin n = 1900±90, m = bn,- DNS = (̵C39H49O32N15P4)̵n ..., verliert bei Erhitzung innerhalb von IO Stunden bei einer Temperatur von I80 bis 200°C alle Wassermoleküle. Der Stoff lässt sich schlecht in Wasser, Methanol, Athanol auflösen, er ist nichthygroskopisch. Seine Löslichkeit in wasser bei einer Temperatur von 20°C beträgt 0,002%. Eine Lösung von 0,015 g des beanspruchten Stoffes in I000 ml einer Zitrat-Salz-Lösung (0,015 Mol NaCl + 0,0015 Mol Natriumzitrat) bei einer Temperatur von 20°C hat einen pH-Wert von 5,42 (pH- potentiometrisch).

Row | Molecule | Uberlebenskraft von Tieren ([1]; day 10 after inoculation of tumour cells, same doses as E1) [%] | Grad der Hemmung des Wachstums eines Tumors [1] [%] | Gehalt an antikörperbildenden Zellen je 10^6 Splenozyte [2] | lg2 Antikörper-Titer ([3]; Linie der Mäuse C57Bl6, day 7) | Gehalt an antikörperbildenden Zellen in der Milz [4] | Effektivität der Behandlung einer Eierstockgeschwulst [5] [%] | lg2 Antikörper-Titer ([3]; Linie der Mäuse CBA, day 7, single i.p. dose (compounds 13,6, CDDP 8,1, DNS 6,0 mg/kg)) | lg2 Antikörper-Titer ([3]; Linie der Mäuse CBA, day 14) | lg2 Antikörper-Titer ([3]; Linie der Mäuse CBA, day 30) | LD50 ([6]; in Lösung) | LD50 ([6]; in Suspension) | Die Zeit der Abstossung (in Tagen) eines Hauptlappens [7] | Löslichkeit in Wasser [8] | pH-Wert [9] | increase of Uberlebenskraft von Tieren compared with CDDP ([1]; versus CDDP) [%] | lg2 Antikörper-Titer ([3]; Linie der Mäuse C57Bl6, day 14) | lg2 Antikörper-Titer ([3]; Linie der Mäuse C57Bl6, day 30) | LDI00 ([6]; in Lösung) | LDI00 ([6]; in Suspension)
1 | N.N.[Cl][Pt][Cl] [CDDP, cis-Dichlorodiaminplatin(II)] | 80 | 78 | 20,37±2,03 | 3,80±0,24 | senken | 100 |  |  |  |  |  |  |  |  |  |  |  |  | 
2 | Poly {bis[hydroxochloramminaquaplatin(II)] - tetrakis[chloroammindiaquaplatin(II)] - µ - desoxyribonukleat [Verbindung II] |  | 94 |  | 6,60±0,32 |  |  | 7,20±0,30 | 7,60±0,32 | 6,40±0,42 | 66,0 mg/kg | 66,0 mg/kg | 6,5±0,5 Tagen | 0,0075% | > 5,38 |  |  |  |  | 
3 | Poly{hexakis [chlor- amminaquaplatin(II)]} - µ - desoxyribonukleat [Verbindung III] |  | 95 |  |  |  |  |  | 8,40±0,42 | 8,50±0,30 |  | 82,5 mg/kg | 6,5±0,5 Tagen |  | 5,44 | 20 | 6,68±0,29 | 6,32±0,24 |  | 
4 | Poly{hexakis-[Chloroammindiaquaplatin (II)]} - µ - desoxyribonukleat [Verbindung I] |  | 84 | 68,4±9,38 |  |  |  |  |  |  |  |  |  | 0,002% | 5,42 |  | 6,82±0,38 |  | 84,0 mg/kg | 84,0 mg/kg
